Measurements from PubChem BioAssay (NCI).
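These data come from cells grown in 96-well plates and exposed to compound for 48 hours at five concentrations. TGI: total growth inhibition.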

What was measured:
Experiment in all cases: DTP human tumour cell line panel, 48 h
[1] = test system: SR leukemia
[2] = test system: NCI-H226 lung
[3] = test system: KM12 colon
[4] = test system: IGROV1 ovarian
[5] = test system: SNB-78 CNS
[6] = test system: OVCAR-8 ovarian
[7] = test system: SW-620 colon
[8] = test system: SF-295 CNS
[9] = test system: RPMI-8226 leukemia
[10] = test system: HCT-116 colon
[11] = test system: HT29 colon
[12] = test system: TK-10 renal
[13] = test system: KM20L2 colon
[14] = test system: RXF-631 renal
[15] = test system: SK-OV-3 ovarian
[16] = test system: XF 498 CNS
[17] = test system: A498 renal
[18] = test system: SN12C renal
[19] = test system: HOP-92 NSCLC
[20] = test system: ACHN renal
[21] = test system: SK-MEL-28 melanoma
[22] = test system: HCT-15 colon
[23] = test system: CCRF-CEM leukemia
[24] = test system: LOX IMVI melanoma
[25] = test system: NCI-H522 lung
[26] = test system: SNB-19 CNS
[27] = test system: M19-MEL melanoma
[28] = test system: HOP-62 NSCLC
[29] = test system: LXFL 529 NSCLC
[30] = test system: COLO 205 colon
[31] = test system: SK-MEL-5 melanoma
[32] = test system: A549 NSCLC
[33] = test system: OVCAR-3 ovarian
[34] = test system: HL-60(TB) leukemia
[35] = test system: UACC-62 melanoma
[36] = test system: SK-MEL-2 melanoma
[37] = test system: NCI-H460 lung
[38] = test system: SNB-75 CNS
[39] = test system: DMS 114 small cell lung
[40] = test system: K-562 leukemia
[41] = test system: HCC-2998 colon
[42] = test system: OVCAR-5 ovarian
[43] = test system: MOLT-4 leukemia
[44] = test system: UACC-257 melanoma
[45] = test system: SF-539 CNS
[46] = test system: NCI-H23 lung
[47] = test system: U251 CNS
[48] = test system: UO-31 renal
[49] = test system: EKVX NSCLC
[50] = test system: HOP-18 NSCLC
[51] = test system: DLD-1 colon
[52] = test system: RXF 393 renal
[53] = test system: SF-268 CNS
[54] = test system: M14 melanoma
[55] = test system: DMS 273 small cell lung
[56] = test system: CAKI-1 renal
[57] = test system: 786-0 renal
[58] = test system: OVCAR-4 ovarian
[59] = test system: MALME-3M melanoma

SMILES: CC(=O)Nc1ccc(C2C(C(=O)Nc3ccccc3C)=C(C)NC(C)=C2C(=O)Nc2ccccc2C)cc1
- TGI [1]: > 100 µM
- TGI [2]: > 100 µM
- TGI [3]: > 31.6 µM
- TGI [4]: > 100 µM
- TGI [5]: > 100 µM
- TGI [6]: > 100 µM
- TGI [7]: > 100 µM
- TGI [8]: > 100 µM
- TGI [9]: > 100 µM
- TGI [10]: > 100 µM
- TGI [11]: > 100 µM
- TGI [12]: > 100 µM
- TGI [13]: > 100 µM
- TGI [14]: > 100 µM
- TGI [15]: > 100 µM
- TGI [16]: > 100 µM
- TGI [17]: > 100 µM
- TGI [18]: > 100 µM
- TGI [19]: > 100 µM
- TGI [20]: > 100 µM
- TGI [21]: > 100 µM
- TGI [22]: > 100 µM
- TGI [23]: > 100 µM
- TGI [24]: > 100 µM
- TGI [25]: > 100 µM
- TGI [26]: > 100 µM
- TGI [27]: > 100 µM
- TGI [28]: > 100 µM
- TGI [29]: > 100 µM
- TGI [30]: > 100 µM
- TGI [31]: > 100 µM
- TGI [32]: > 100 µM
- TGI [33]: > 100 µM
- TGI [34]: > 100 µM
- TGI [35]: > 100 µM
- TGI [36]: > 100 µM
- TGI [37]: > 100 µM
- TGI [38]: > 100 µM
- TGI [39]: > 100 µM
- TGI [40]: > 100 µM
- TGI [41]: > 100 µM
- TGI [42]: > 100 µM
- TGI [43]: > 26.2 µM
- TGI [44]: > 100 µM
- TGI [45]: > 100 µM
- TGI [46]: > 100 µM
- TGI [47]: > 100 µM
- TGI [48]: > 100 µM
- TGI [49]: > 100 µM
- TGI [50]: > 100 µM
- TGI [51]: > 100 µM
- TGI [52]: > 100 µM
- TGI [53]: > 100 µM
- TGI [54]: > 100 µM
- TGI [55]: > 100 µM
- TGI [56]: > 100 µM
- TGI [57]: > 100 µM
- TGI [58]: > 100 µM
- TGI [59]: > 100 µM

SMILES: C[Si](C)(C)/N=C1\N2C(=NC1(C(F)(F)F)C(F)(F)F)Sc1ccccc12
- TGI [1]: > 50 µM
- TGI [2]: > 50 µM
- TGI [3]: > 50 µM
- TGI [4]: > 50 µM
- TGI [5]: > 50 µM
- TGI [6]: > 50 µM
- TGI [7]: > 50 µM
- TGI [8]: > 50 µM
- TGI [9]: > 50 µM
- TGI [10]: > 50 µM
- TGI [11]: > 50 µM
- TGI [12]: > 50 µM
- TGI [13]: > 50 µM
- TGI [14]: > 50 µM
- TGI [15]: > 50 µM
- TGI [16]: > 50 µM
- TGI [17]: > 50 µM
- TGI [18]: > 50 µM
- TGI [19]: > 50 µM
- TGI [20]: > 50 µM
- TGI [22]: > 50 µM
- TGI [23]: > 50 µM
- TGI [24]: > 50 µM
- TGI [25]: > 50 µM
- TGI [26]: > 50 µM
- TGI [27]: > 50 µM
- TGI [28]: > 50 µM
- TGI [29]: > 50 µM
- TGI [30]: > 50 µM
- TGI [31]: > 50 µM
- TGI [32]: > 50 µM
- TGI [33]: > 50 µM
- TGI [34]: > 50 µM
- TGI [35]: > 50 µM
- TGI [36]: > 50 µM
- TGI [37]: > 50 µM
- TGI [38]: > 50 µM
- TGI [39]: > 50 µM
- TGI [40]: > 50 µM
- TGI [41]: > 50 µM
- TGI [42]: > 50 µM
- TGI [43]: > 50 µM
- TGI [44]: > 50 µM
- TGI [45]: > 50 µM
- TGI [46]: > 50 µM
- TGI [47]: > 50 µM
- TGI [48]: > 50 µM
- TGI [49]: > 50 µM
- TGI [50]: > 50 µM
- TGI [51]: > 50 µM
- TGI [52]: > 50 µM
- TGI [53]: > 50 µM
- TGI [54]: > 50 µM
- TGI [55]: > 50 µM
- TGI [56]: > 50 µM
- TGI [57]: > 50 µM
- TGI [58]: > 50 µM
- TGI [59]: > 50 µM
